From ChEMBL document CHEMBL6071153, “Design, synthesis, and evaluation of antitumor activity in Pseudolaric acid B Azole derivatives: Novel and potent angiogenesis inhibitor via regulation of the PI3K/AKT and MAPK mediated HIF-1/VEGF signaling pathway” (Eur J Med Chem, 2024)
Active and inactive are the calls of the source. No cut-off for these calls is given here.

Assays:
SiHa [1] = test: Cytotoxicity against human SiHa cells assessed as inhibition of cell growth incubated for 24 hrs under normoxic condition by MTT assay; format: functional, cell-based
[2] = Inhibition of VEGFR mediated endocytosis in human SiHa cells incubated for 24 hrs under hypoxic condition by ELISA; format: cell-based
[3] = Toxicity in Balb/c mouse xenografted with human SiHa cells assessed as reduction in body weight at 30 mg/kg,ip administration measured after 22 days; format: organism-based; conditions: in vivo, 528 h, time 22 day
[4] = Inhibition of HIF-1 transcriptional activity in human HCT-116 cells preincubated for 1 hr under normoxic condition followed by 24 hrs incubation under hypoxic condition by luciferase reporter assay; format: cell-based
SiHa [5] = test: Inhibition of hypoxia-induced HIF-1beta accumulation in human SiHa cells at 10 uM incubated for 24 hrs under hypoxic condition by Western blotting analysis; format: functional, cell-based
SiHa [6] = test: Antitumor activity against human SiHa cells xenografted in Balb/c mouse assessed as reduction in tumor volume at 30 mg/kg,ip administration measured after 22 days; format: functional, organism-based; conditions: time 22.0 day
[7] = Toxicity in Balb/c mouse assessed as change in animal fur at 50 mg/kg,ip administration for 1 week; format: organism-based; conditions: in vivo, 168 h, time 1 weeks
SiHa [8] = test: Inhibition of hypoxia-induced HIF-1alpha accumulation in human SiHa cells at 10 uM incubated for 24 hrs under hypoxic condition by Western blotting analysis; format: functional, cell-based
HUVEC [9] = test: Antiangiogenic activity against human HUVEC cells assessed as inhibition of blood vessel formation at 10 uM incubated for 4 hrs under hypoxic condition by fluorescence microscopic analysis; format: functional, cell-based
SiHa [10] = test: Antitumor activity against human SiHa cells xenografted in Balb/c mouse assessed as reduction in tumor growth at 30 mg/kg,ip administration measured after 22 days; format: functional, organism-based; conditions: time 22.0 day
HUVEC [11] = test: Inhibition of cell migration in human HUVEC cells at 10 uM incubated for 48 hrs under hypoxic condition by microscopic analysis relative to PAB; format: functional
[12] = Inhibition of PI3K/AKT/mTOR signalling pathway in human SiHa cells assessed as downregulation of JNK phosphorylation at 10 uM incubated for 24 hrs under hypoxic condition by Western blotting analysis; format: cell-based
[13] = Toxicity in Balb/c mouse assessed as fatality at 50 mg/kg,ip administration for 1 week; format: organism-based; conditions: in vivo, 168 h, time 1 weeks
HUVEC [14] = test: Inhibition of cell migration in human HUVEC cells at 10 uM incubated for 48 hrs under hypoxic condition by microscopic analysis relative to M2; format: functional, cell-based
SiHa [15] = test: Antitumor activity against human SiHa cells xenografted in Balb/c mouse assessed as reduction in tumor weight at 30 mg/kg,ip administration measured after 22 days; format: functional, organism-based; conditions: time 22.0 day
SiHa [16] = test: Inhibition of VEGFR in human SiHa cells assessed as decrease in intracellular VEGFR protein expression at 10 uM incubated for 24 hrs under hypoxic condition by immunofluorescence staining based analysis relative to M2; format: cell-based

Compound	IC50 (SiHa [1])	IC50 [2]	other results
COC(=O)C1=CC[C@@]23CC[C@@H]([C@@](C)(/C=C/C=C(\C)C(=O)OCc4cn(Cc5ccc(F)cc5)nn4)OC2=O)[C@@]3(OC(C)=O)CC1	> 30 µM	3.89 µM	
COC(=O)C1=CC[C@@]23CC[C@@H]([C@@](C)(/C=C/C=C(\C)C(=O)OCc4nc(-c5ccc(Cl)c(Cl)c5)no4)OC2=O)[C@@]3(OC(C)=O)CC1	> 30 µM	3.03 µM	
COC(=O)C1=CC[C@@]23CC[C@@H]([C@@](C)(/C=C/C=C(\C)C(=O)OCC(=O)NCc4cn(-c5ccccc5)nn4)OC2=O)[C@@]3(OC(C)=O)CC1	> 30 µM	2.8 µM	
COC(=O)C1=CC[C@@]23CC[C@@H]([C@@](C)(/C=C/C=C(\C)C(=O)OCC(=O)Nc4ccc(Cl)cc4)OC2=O)[C@@]3(OC(C)=O)CC1	> 30 µM	4.38 µM	
COC(=O)C1=CC[C@@]23CC[C@@H]([C@@](C)(/C=C/C=C(\C)C(=O)NCc4cn(-c5ccc(Cl)cc5)nn4)OC2=O)[C@@]3(OC(C)=O)CC1	> 30 µM	3.74 µM	
COC(=O)C1=CC[C@@]23CC[C@@H]([C@@](C)(/C=C/C=C(\C)C(=O)OCc4cn(Cc5ccc(OC)cc5)nn4)OC2=O)[C@@]3(OC(C)=O)CC1	> 30 µM	1.75 µM	
COC(=O)C1=CC[C@@]23CC[C@@H]([C@@](C)(/C=C/C=C(\C)C(=O)OCc4cc(-c5ccccc5)no4)OC2=O)[C@@]3(OC(C)=O)CC1	> 30 µM	> 5 µM	
COC(=O)C1=CC[C@@]23CC[C@@H]([C@@](C)(/C=C/C=C(\C)C(=O)OCC(=O)Nc4ccccc4)OC2=O)[C@@]3(OC(C)=O)CC1	> 30 µM	4.03 µM	
COC(=O)C1=CC[C@@]23CC[C@@H]([C@@](C)(/C=C/C=C(\C)C(=O)OCc4cc(-c5ccc(Cl)cc5)no4)OC2=O)[C@@]3(OC(C)=O)CC1	> 30 µM	4.44 µM	
COC(=O)C1=CC[C@@]23CC[C@@H]([C@@](C)(/C=C/C=C(\C)C(=O)OCCn4ncn(-c5ccc(F)cc5)c4=O)OC2=O)[C@@]3(OC(C)=O)CC1	> 30 µM	2.38 µM	
COC(=O)C1=CC[C@@]23CC[C@@H]([C@@](C)(/C=C/C=C(\C)C(=O)NCc4cn(-c5ccc(OC)cc5)nn4)OC2=O)[C@@]3(OC(C)=O)CC1	> 30 µM	5.06 µM	
COC(=O)C1=CC[C@@]23CC[C@@H]([C@@](C)(/C=C/C=C(\C)C(=O)OCc4cn(Cc5ccc(Cl)cc5)nn4)OC2=O)[C@@]3(OC(C)=O)CC1	> 30 µM	1.43 µM	
O=c1[nH]cc(F)c(=O)[nH]1 [FLUOROURACIL]			Activity [3]: Non-Toxic
COC(=O)C1=CC[C@@]23CC[C@@H]([C@@](C)(/C=C/C=C(\C)C(=O)NCc4cn(-c5ccc(F)cc5)nn4)OC2=O)[C@@]3(OC(C)=O)CC1	> 30 µM	4.14 µM	
COC(=O)C1=CC[C@@]23CC[C@@H]([C@@](C)(/C=C/C=C(\C)C(=O)OCc4cn(-c5ccc(Cl)cc5)nn4)OC2=O)[C@@]3(OC(C)=O)CC1	> 30 µM	2.15 µM	
COC(=O)C1=CC[C@@]23CC[C@@H]([C@@](C)(/C=C/C=C(\C)C(=O)NCc4cn(-c5ccccc5)nn4)OC2=O)[C@@]3(OC(C)=O)CC1	> 30 µM	2.91 µM	
COC(=O)C1=CC[C@@]23CC[C@@H]([C@@](C)(/C=C/C=C(\C)C(=O)OCc4cn(Cc5ccc(Cl)c(Cl)c5)nn4)OC2=O)[C@@]3(OC(C)=O)CC1	> 30 µM	2.79 µM	
COC(=O)C1=CC[C@@]23CC[C@@H]([C@@](C)(/C=C/C=C(\C)C(=O)OCc4nnc(-c5ccccc5)o4)OC2=O)[C@@]3(OC(C)=O)CC1	> 30 µM	> 5 µM	
COC(=O)C1=CC[C@@]23CC[C@@H]([C@@](C)(/C=C/C=C(\C)C(=O)OCCn4ncn(-c5ccc(Cl)cc5)c4=O)OC2=O)[C@@]3(OC(C)=O)CC1	> 30 µM	1.86 µM	
COC(=O)C1=CC[C@@]23CC[C@@H]([C@@](C)(/C=C/C=C(\C)C(=O)OCc4nc(-c5ccc(Cn6cncn6)cc5)no4)OC2=O)[C@@]3(OC(C)=O)CC1	> 30 µM	> 5 µM	
COC(=O)C1=CC[C@@]23CC[C@@H]([C@@](C)(/C=C/C=C(\C)C(=O)OCCn4ncn(-c5ccc(OC)c(OC)c5)c4=O)OC2=O)[C@@]3(OC(C)=O)CC1	> 30 µM	> 5 µM	

Compound	IC50 (SiHa [1])	IC50 [2]	other results
COC(=O)C1=CC[C@@]23CC[C@@H]([C@@](C)(/C=C/C=C(\C)C(=O)OCc4cn(-c5ccccc5)nn4)OC2=O)[C@@]3(OC(C)=O)CC1	> 30 µM	> 5 µM	
COC(=O)C1=CC[C@@]23CC[C@@H]([C@@](C)(/C=C/C=C(\C)C(=O)OCc4nc(-c5ccc(OC)cc5)no4)OC2=O)[C@@]3(OC(C)=O)CC1	> 30 µM	4.16 µM	
COC(=O)C1=CC[C@@]23CC[C@@H]([C@@](C)(/C=C/C=C(\C)C(=O)OCc4cn(Cc5ccccc5)nn4)OC2=O)[C@@]3(OC(C)=O)CC1	> 30 µM	> 5 µM	
OC1CCN(CCOc2cccc(Cn3nc(-c4nc(-c5ccc(OC(F)(F)F)cc5)no4)c4ccccc43)c2)CC1			IC50 [4]: 0.55 µM
COC(=O)C1=CC[C@@]23CC[C@@H]([C@@](C)(/C=C/C=C(\C)C(=O)NCc4cn(-c5ccc(Cl)c(Cl)c5)nn4)OC2=O)[C@@]3(OC(C)=O)CC1	> 30 µM	> 5 µM	
COC(=O)C1=CC[C@@]23CC[C@@H]([C@@](C)(/C=C/C=C(\C)C(=O)OCC(=O)NCc4cn(-c5ccc(OC)cc5)nn4)OC2=O)[C@@]3(OC(C)=O)CC1	> 30 µM	3.4 µM	
COC(=O)C1=CC[C@@]23CC[C@@H]([C@@](C)(/C=C/C=C(\C)C(=O)OCCn4ncn(-c5ccc(Cl)c(Cl)c5)c4=O)OC2=O)[C@@]3(OC(C)=O)CC1	> 30 µM	1.17 µM	
COC(=O)C1=CC[C@@]23CC[C@@H]([C@@](C)(/C=C/C=C(\C)C(=O)OCc4nc(-c5ccccc5)no4)OC2=O)[C@@]3(OC(C)=O)CC1	> 30 µM	2 µM	
COC(=O)C1=CC[C@@]23CC[C@@H]([C@@](C)(/C=C/C=C(\C)C(=O)OCc4cn(Cc5cc(OC)c(OC)c(OC)c5)nn4)OC2=O)[C@@]3(OC(C)=O)CC1	> 30 µM	2.3 µM	
COC(=O)C1=CC[C@@]23CC[C@@H]([C@@](C)(/C=C/C=C(\C)C(=O)OCc4nnc(-c5ccc(OC)cc5)o4)OC2=O)[C@@]3(OC(C)=O)CC1	> 30 µM	> 5 µM	
COC(=O)C1=CC[C@@]23CC[C@@H]([C@@](C)(/C=C/C=C(\C)C(=O)O)OC2=O)[C@@]3(OC(C)=O)CC1 [PSEUDOLARIC ACID B]	> 30 µM	5.54 µM	inhibition (SiHa [5]): Active; Activity [3]: Non-Toxic; Activity (SiHa [6]): Active; Activity [7]: Non-Toxic; inhibition (SiHa [8]): Active; Activity (HUVEC [9]): Active; Activity (SiHa [10]): Active; inhibition at 10 µM (HUVEC [11]): 68.5%; inhibition [12]: inactive; Activity [13]: Non-Toxic; inhibition (HUVEC [14]): Active; Activity (SiHa [15]): Active; inhibition (SiHa [16]): Active
C[C@H]1[C@H](C)CC[C@]2(C(=O)OCCCn3ncn(-c4ccccc4)c3=O)CC[C@]3(C)C(=CC[C@@H]4[C@@]5(C)CCC(O)C(C)(C)[C@@H]5CC[C@]43C)[C@H]12 (stereo partly specified)			IC50 [4]: 36.9 µM
COC(=O)C1=CC[C@@]23CC[C@@H]([C@@](C)(/C=C/C=C(\C)C(=O)OCc4nc(-c5ccc(Cl)cc5)no4)OC2=O)[C@@]3(OC(C)=O)CC1	> 30 µM	1.51 µM	
COC(=O)C1=CC[C@@]23CC[C@@H]([C@@](C)(/C=C/C=C(\C)C(=O)OCCn4ncn(-c5ccc(OC)cc5)c4=O)OC2=O)[C@@]3(OC(C)=O)CC1	> 30 µM	> 5 µM	
COC(=O)C1=CC[C@@]23CC[C@@H]([C@@](C)(/C=C/C=C(\C)C(=O)OCCn4ncn(-c5ccccc5)c4=O)OC2=O)[C@@]3(OC(C)=O)CC1	> 30 µM	4.03 µM	
COC(=O)C1=CC[C@@]23CC[C@@H]([C@@](C)(/C=C/C=C(\C)C(=O)OCC(=O)Nc4ccc(OC)cc4)OC2=O)[C@@]3(OC(C)=O)CC1	> 30 µM	1.86 µM	
CN1CCN(CCOc2cccc(Cn3nc(-c4nc(-c5ccc(OC(F)(F)F)cc5)no4)c4ccccc43)c2)CC1			IC50 [4]: 0.62 µM
COC(=O)C1=CC[C@@]23CC[C@@H]([C@@](C)(/C=C/C=C(\C)C(=O)OCc4cn(-c5ccc(OC)cc5)nn4)OC2=O)[C@@]3(OC(C)=O)CC1	> 30 µM	2.18 µM	
COC(=O)C1=CC[C@@]23CC[C@@H]([C@@](C)(/C=C/C=C(\C)C(=O)OCc4nnc(-c5ccc(Cl)cc5)o4)OC2=O)[C@@]3(OC(C)=O)CC1	> 30 µM	> 5 µM	
COC(=O)C1=CC[C@@]23CC[C@@H]([C@@](C)(/C=C/C=C(\C)C(=O)OCc4cc(-c5ccc(OC)cc5)no4)OC2=O)[C@@]3(OC(C)=O)CC1	> 30 µM	> 5 µM	
